These results are taken from PMC8121762, “Peptidomics of enteroendocrine cells and characterisation of potential effects of a novel preprogastrin derived-peptide on glucose tolerance in lean mice” (Peptides, 2021).

Where no end group is shown, it is not given here.

The data set can be described thus: Pharmacokinetics studies in mice (i.v. and s.c. bolus, plasma LC–MS/MS). In kind it is in vivo. The following applies: mouse; for AUC / bioavailability: both sexes, C57BL/6 N J, plasma LC–MS/MS; for AUC: tail vein blood over 90 min; for Clearance: s.c. As to the method:
Male and female mice aged between 12–18 weeks old were used for these studies. Gast p59−79, ChgA 435−462a and Sst 25−36 were administered intravenously (i.v.) at 1 mg/kg and subcutaneously (s.c.) at various doses (see Fig. 7A, B and C for details on specific doses for each peptide). Blood samples were collected using EDTA coated microvette tubes (Starsedt, Leicester, UK) from the tail vein at various time points over 90 min. Blood was centrifuged (2000 g, 10 min, 4 °C) and the plasma separated. A 0.1 M sodium citrate (Sigma-Aldrich) buffer (adjusted to pH 3 with citric acid (Sigma-Aldrich)) was added to the plasma at a dilution of 1 in 10 to prevent degradation of Gast p59−79 and Sst 25−36. Plasma was stored -70 °C till extraction.
On the day of analysis, plasma samples were thawed, spiked with a stable isotope labelled version of Gast p59−79, ChgA 435−462a or Sst 25−36, and crashed with 200 μL 80 % ACN. After centrifuging, supernatants were removed and dried under gaseous nitrogen at 40 °C using a SPE Dry evaporator system (Biotage, Upsalla, Sweden). SPE was performed as described previously.
A Xevo TQ-XS triple quadrupole mass spectrometer coupled to H-class Aquity UPLC system enabled high throughput and targeted sample analysis. The column used was a Waters HSS T3 2.1 × 50 mm column at 60 °C and flowing at 350 μL/min. LC–MS/MS analysis was performed using positive ESI with a spray voltage of 3 kV, desolvation temperature 600°C, gas flow rate 1000 L/h and cone voltage of 40 V. Solvent A was 0.1 % FA in water (v/v) and Solvent B was 0.1 % FA in ACN (v/v). Each sample (40 μL per sample) was injected onto the column for 30 s with starting conditions set at 90 % A and 10 % B before the % B was increased to 50 % over the course of 3.5 min. The column was flushed with 90 % B for 1.5 min before initial conditions were restored. Total run time per sample was 5.5 min. Table 1 details the specifications used to quantify Gast p59−79, ChgA 435−462a, Sst 25−36 and their stable isotope labelled versions on a Xevo TQ-XS mass spectrometer.
Raw data files obtained on the Xevo TQ-XS triple quadrupole mass spectrometer were analysed using TargetLynx XS v4.2 software (Waters). Peptides were quantified by integrating the corresponding peaks and normalised to an internal standard if available. For pharmacokinetics studies, the concentration of peptide was estimated by comparing against a calibration line. SAAM II v2.2.1 (The Epsilon Group) with a Rosenbrock integrator and no maximum number of iterations was used to create a model for Gast p59−79 distribution and elimination upon single dose administration to mice.

A word on the AUC: it is concentration integrated over time. Usually bioavailability stands for dose-corrected exposure relative to a reference, in per cent. Low readings indicate little systemic uptake, high ones much systemic uptake.

Substance APSDPRLRQFLQ [Sst 25−36] displayed an AUC (sc, 10 mg/kg) of 3.3 ng·h/mL. Also, for the setting “in vivo, sc, 10 mg/kg”, the “detection in plasma after s.c. injection” value is given as “only detectable at low concentrations”. In addition, the “half-life in vivo (in words)” value (pilot data) is given as “very short half-life”. Besides, the Clearance (10 mg/kg) is 3030 mL/h/kg.

As to “AEDQELESLSAIEAELEKVAHQLQALRR-NH2 [ChgA 435−462a]”, the AUC is 362 ng·h/mL (iv, 1 mg/kg); 169 ng·h/mL (sc, 1 mg/kg); 547 ng·h/mL (sc, 3 mg/kg). The bioavailability stood at 46.7% (sc, 1 mg/kg) and 50.4% (sc, 3 mg/kg). For the same substance, the “mass delivery rate required to obtain steady state concentration of 1 nM” value (estimated from PK data (SAAM II model), osmotic pump infusion) is 0.29 mg/kg/day. In addition, the Clearance was 5.92 mL/h/kg (1 mg/kg) and 5.48 mL/h/kg (3 mg/kg).
